This passage reports K inact and Ratio results from ChEMBL document CHEMBL1150990, “Studies of the inactivation of general acyl-coa dehydrogenase by (1R)- and (1S)-(methylenecyclopropyl)acetyl-coa” (Bioorg Med Chem Lett, 1992).

The nature of experiment [1]: Inactivation of general acyl-CoA dehydrogenase by the compound was determined and expressed as kinact.
Experiment [2] in a line: Partition ratio of the inactivation of general acyl-CoA dehydrogenase by the compound was determined.

SMILES strings stand for the structures.

`C=C1C[C@H]1CC(=O)SCCNC(=O)CCNC(=O)[C@H](O)C(C)(C)COP(=O)(O)OP(=O)(O)OC[C@H]1O[C@@H](n2cnc3c(N)ncnc32)[C@H](O)[C@@H]1OP(=O)(O)O` yielded a K inact in experiment [1] of 0.0163 s⁻¹. For the same molecule, the Ratio in experiment [2] is 4.

Take `C=C1C[C@@H]1CC(=O)SCCNC(=O)CCNC(=O)[C@H](O)C(C)(C)COP(=O)(O)OP(=O)(O)OC[C@H]1O[C@@H](n2cnc3c(N)ncnc32)[C@H](O)[C@@H]1OP(=O)(O)O`: in experiment [1], the K inact is 0.0173 s⁻¹. In experiment [2], the Ratio worked out at 3.4.
